From patent US8937183B2, “Detection of hydrogen peroxide” (Promega Corporation, priority 2011, dated 2015)

Columns and labels:
[1] = Signal strength differences due to reaction pH and buffer composition (hydrogen peroxide, D-cysteine conversion, LDR); format: biochemical; details: for Net Average Signals at 15 Minutes / Net Average Signals at 60 Minutes / Net Average Signals at 105 Minutes: 100 μl of 10 μM H2O2 added
Description: A 30 μl sample of 4 mg/ml PBI 4458 in DMSO was diluted to 1.5 ml with Nanopure water, and 50 μl added to wells A1-12 and E1-12 of a microtiter plate. A 30 μl sample of 4 mg/ml PBI 4472 in DMSO was diluted to 1.5 ml with Nanopure, and 50 μl added to wells B1-12 and F1-12 of the plate. A 30 μl sample of 4 mg/ml PBI 4480 in DMSO was diluted to 1.5 ml with Nanopure water, and 50 μl added to wells C1-12 and G1-12 of the plate. A 30 μl sample of 4 mg/ml PBI 4481 in DMSO was diluted to 1.5 ml with Nanopure water, and 50 μl added to wells D1-12 and H1-12 of the plate. To the plate, a 50 μl sample of 200 mM KHPO4, pH 7.4 was added to wells A1-D4; 50 μl 200 mM Tris buffer, pH 7.4 was added to wells A5-D8; 50 μl 250 mM HEPES buffer, pH 7.5 was added to wells A9-D12; 50 μl 200 mM KHPO4 buffer, pH 9.2 was added to wells E1-H4; 50 μl 250 mM Tris buffer, pH 10.4 was added to wells E5-H8; and 50 μl 100 mM CAPS buffer, pH 10.4 was added to wells E9-H12.
A sample of hydrogen peroxide (30%, Sigma, H1009-5 ml) was diluted to 10 μM with Nanopure water, and 100 μl added to columns 3, 4, 7, 8, 11, 12 wells A-H of the plate. 100 μl Nanopure water was added to columns 1, 2, 5, 6, 9 and 10 of the plate. The plate was incubated at room temperature for 15 minutes.
A conversion solution was made by mixing 5 ml of 1 M HEPES buffer, pH 7.5, 4.9 ml of Nanopure water and 100 μl of 100 mM D-cysteine (in Nanopure water), and […] added to all wells of a luminometer plate.
After incubation, 25 μl of sample from all wells in the plate was transferred and mixed into the corresponding wells in the luminometer plate, incubated 2-3 minutes at room temperature, and 50 μl LDR (Example 23) added. The luminometer plate was incubated for 15 minutes at room temperature, and bioluminescence detected on a GloMax® luminometer.
Additional samples were taken at 60 and 105 minutes and added to a fresh luminometer plates containing 25 μl of conversion solution in all wells. The plates were then incubated for 15 minutes at room temperature, and bioluminescence detected as previously described.

[2] = Light generation from compounds following incubation with hydrogen peroxide in different pH solutions (D-cysteine conversion, LDR); format: biochemical; details: for Signal to Background Ratios: signal with peroxide to background no peroxide
Description: In this experiment, various compounds were tested for their ability to detect hydrogen peroxide in different pH solutions. Several compounds are shown to give much better signal strength and signal to background ratios than PBI 3048 (Example 23). 4 mg/ml solutions of compounds PBI 4480, 4481, 4452, 4470, 4472, 3048 (FIGS. 1 and 2) were made by dissolving them in DMSO (Fluka 41641). 30 μl of the compound solutions was diluted to 1.5 ml with Nanopure water, and 50 μl aliquots added as follows into a white, 96-well luminometer plate: PBI 4481, row A1-12; PBI 4480, row B1-12; PBI 4452, row C1-12; PBI 3048, row D1-12; PBI 4472, row E1-12 and PBI 4470, row F1-12.
25 μl of 200 mM TRIS buffer, pH 7.6 was added to wells A1-F4, 25 μl of 200 mM TRIS buffer, pH 8.8 was added to wells A5-F8, and 25 μl of 200 mM Tris buffer, pH 10.4 was added […].
30% hydrogen peroxide (Sigma H 1009-5 ml) was diluted to 40 μM in Nanopure water, and 25 μl added to columns 3, 4, 7, 8, 11 and 12 of the plate. 25 μl water was added to columns 1, 2, 5, 6, 9, and 10 of the plate, and the plate incubated at room temperature for 60 minutes.
A conversion solution was made by mixing 100 μl of 100 mM D-cysteine, 1 ml Tris Buffer pH 8.8 and 8.9 ml nanopure water. After mixing, 80 μl of the solution was added to wells A1-F12 of a new luminometer plate.
After incubation, 20 μl of sample from wells A1-F12 of the first plate was transferred to the same well in the new luminometer plate. The new plate was incubated at room temperature for 5 minutes, 100 μl of LDR (Example 23) was added to wells A1-F12, and bioluminescence detected on a Glo Max® luminometer (Promega).
The RLUs for the duplicate wells were averaged. The averages for the wells containing hydrogen peroxide were compared to the wells without hydrogen peroxide at the same pH (Table 2). BZT is used to designate benzothiazole derivatives of the compounds.
The Signal to Background (S/B) ratio is used to compare assay reagents with very difference signal strengths. An assay with a higher S/B ratio is often considered a better assay than one with a smaller S/B ratio (with all other factors being relatively equal).

## CC1(C)OB(/C=C/COc2ccc3nc(C#N)sc3c2)OC1(C)C [PBI 4458, (E)-6-((3-(4,4,5,5-tetramethyl-1,3,2-dioxaborolan-2-yl)allyl)oxy)-benzo[d]thiazole-2-carbonitrile]
[1]; CAPS pH 10.4, 15 minutes
  Signal to Background Ratios at 15 Minutes: 13.2
  Net Average Signals at 15 Minutes: 4,577,774 RLU
[1]; CAPS pH 10.4, 60 minutes
  Signal to Background Ratios at 60 Minutes: 12.1
  Net Average Signals at 60 Minutes: 5,831,485 RLU
[1]; CAPS pH 10.4, 105 minutes
  Signal to Background Ratios at 105 Minutes: 9.6
  Net Average Signals at 105 Minutes: 8,063,108 RLU
[1]; HEPES pH 7.5, 15 minutes
  Signal to Background Ratios at 15 Minutes: 2.0
  Net Average Signals at 15 Minutes: 117,752 RLU
[1]; HEPES pH 7.5, 60 minutes
  Signal to Background Ratios at 60 Minutes: 4.5
  Net Average Signals at 60 Minutes: 494,958 RLU
[1]; HEPES pH 7.5, 105 minutes
  Signal to Background Ratios at 105 Minutes: 5.7
  Net Average Signals at 105 Minutes: 1,033,511 RLU
[1]; KPO4 Ph 7.4, 15 minutes
  Net Average Signals at 15 Minutes: 148,190 RLU
[1]; KPO4 pH 7.4, 15 minutes
  Signal to Background Ratios at 15 Minutes: 2.2
[1]; KPO4 pH 7.4, 60 minutes
  Signal to Background Ratios at 60 Minutes: 4.5
  Net Average Signals at 60 Minutes: 615,057 RLU
[1]; KPO4 pH 7.4, 105 minutes
  Signal to Background Ratios at 105 Minutes: 5.4
  Net Average Signals at 105 Minutes: 1,297,857 RLU
[1]; KPO4 pH 9.2, 15 minutes
  Signal to Background Ratios at 15 Minutes: 6.4
  Net Average Signals at 15 Minutes: 937,111 RLU
[1]; KPO4 pH 9.2, 60 minutes
  Signal to Background Ratios at 60 Minutes: 9.5
  Net Average Signals at 60 Minutes: 2,490,775 RLU
[1]; KPO4 pH 9.2, 105 minutes
  Signal to Background Ratios at 105 Minutes: 9.1
  Net Average Signals at 105 Minutes: 4,925,484 RLU
[1]; TRIS pH 10.4, 15 minutes
  Signal to Background Ratios at 15 Minutes: 15.2
  Net Average Signals at 15 Minutes: 2,348,900 RLU
[1]; TRIS pH 10.4, 60 minutes
  Signal to Background Ratios at 60 Minutes: 19.4
  Net Average Signals at 60 Minutes: 3,795,644 RLU
[1]; TRIS pH 10.4, 105 minutes
  Signal to Background Ratios at 105 Minutes: 15.7
  Net Average Signals at 105 Minutes: 5,482,012 RLU
[1]; Tris pH 7.4, 15 minutes
  Signal to Background Ratios at 15 Minutes: 2.2
  Net Average Signals at 15 Minutes: 150,205 RLU
[1]; Tris pH 7.4, 60 minutes
  Signal to Background Ratios at 60 Minutes: 4.6
  Net Average Signals at 60 Minutes: 626,927 RLU
[1]; Tris pH 7.4, 105 minutes
  Signal to Background Ratios at 105 Minutes: 6.0
  Net Average Signals at 105 Minutes: 1,274,061 RLU

## O=C(O)C1CSC(c2nc3ccc(OCc4ccc(B(O)O)cc4)cc3s2)=N1 (stereo not drawn) [PBI 3048]
[2]; pH 7.6
  Signal to Background Ratios: 3.0
[2]; pH 7.6 TRIS buffer, No H2O2, 60 minutes
  averaged RLUs (bioluminescence): 569,141 RLU
[2]; pH 7.6 TRIS buffer, With H2O2 (25 μl of 40 μM added), 60 minutes
  averaged RLUs (bioluminescence): 1,726,143 RLU
[2]; pH 8.8
  Signal to Background Ratios: 4.5
[2]; pH 8.8 TRIS buffer, No H2O2, 60 minutes
  averaged RLUs (bioluminescence): 558,869 RLU
[2]; pH 8.8 TRIS buffer, With H2O2 (25 μl of 40 μM added), 60 minutes
  averaged RLUs (bioluminescence): 2,499,869 RLU
[2]; pH 10.4
  Signal to Background Ratios: 6.7
[2]; pH 10.4 Tris buffer, No H2O2, 60 minutes
  averaged RLUs (bioluminescence): 558,333 RLU
[2]; pH 10.4 Tris buffer, With H2O2 (25 μl of 40 μM added), 60 minutes
  averaged RLUs (bioluminescence): 3,768,437 RLU
